Our source for the IC50 and Activity values is ChEMBL document CHEMBL1158642, “Syntheses and biological evaluation of ring-C modified colchicine analogs” (Bioorg Med Chem Lett, 2010).

In test [1] the test system is PC-3. Nature of the test: Cytotoxicity against human PC3 cells after 72 hrs by crystal violet staining. Format: functional, cell-based. To be noted: PC-3, 72 h.
The test system of test [2] is MCF7. Description: Cytotoxicity against human MCF7 cells after 72 hrs by crystal violet staining. The class given is functional, cell-based. The conditions noted are these: MCF7, 72 h.
Test [3] is described as follows: Inhibition of microtubule polymerization at 10 uM after 10 mins.

Calls of active or inactive are those of the source. The calls are words filed in the database; no cut-off is given here.

As usually defined, the IC50 is the concentration at which inhibition is half-maximal. The low end stands for greater potency in that assay, the high end for weaker potency in that assay. `CCc1cccc(N2O[C@H]3C(=O)C(OC)=C[C@H]2C2=C3[C@@H](NC(C)=O)CCc3cc(OC)c(OC)c(OC)c32)n1`: the half-inhibitory concentration (IC50) in test [1] worked out at 23 nM; in test [2], 22 nM.
Regarding `COC1=C[C@H]2C3=C([C@@H](ON2c2ccccn2)C1=O)[C@@H](NC(C)=O)CCc1cc(OC)c(OC)c(OC)c13`, the values for the concentration for half-maximal inhibition (IC50) in test [1] and in test [2] were 28 nM and 17 nM, respectively. For the same molecule, the outcome in test [3] was Active.
On the same counts, the results for `COC1=C[C@H]2C3=C([C@@H](ON2c2cccc(C)n2)C1=O)[C@@H](NC(C)=O)CCc1cc(OC)c(OC)c(OC)c13` are 25 nM, 20 nM and “Active”.
Regarding `COc1cc2c(c(OC)c1OC)-c1ccc(OC)c(=O)cc1[C@@H](NC(C)=O)CC2` [COLCHICINE], half-maximal inhibition in test [1] (IC50) was put at 20 nM. In addition, in test [3], the outcome was Active.
Consider `COC1=C[C@H]2C3=C([C@@H](ON2c2cc(C)on2)C1=O)[C@@H](NC(C)=O)CCc1cc(OC)c(OC)c(OC)c13`, for which the results for the IC50 in test [1] and in test [2] were 250 nM and 190 nM, respectively. Moreover, the result in test [3] was Active.
On to `COC1=C[C@H]2C3=C([C@@H](ON2c2cc(C)ccn2)C1=O)[C@@H](NC(C)=O)CCc1cc(OC)c(OC)c(OC)c13`, for which the IC50 in test [1] came out at 14 nM; in test [2], 10 nM.
As to `COC1=C[C@@H]2ON(c3cnoc3C)[C@@H](C1=O)C1=C2c2c(cc(OC)c(OC)c2OC)CC[C@@H]1NC(C)=O`, the values for the concentration for half-maximal inhibition (IC50) in test [1] and in test [2] were 245 nM and 250 nM, respectively. The result in test [3] was inactive.
